Reference: US9340590B2 (priority 2011, dated 2016)
Where two headings read alike, the source gives them in different places. Positions of bridges follow the written chain, without caps; N, C: chain ends. Residues, ends and D or L forms follow the SMILES beside them.

Experiments:
Assay in all cases: cell-based
hNav1.5 = hNav1.5 (Homo sapiens, UniProt Q14524)
hNav1.3 = hNav1.3 (Homo sapiens, UniProt Q9NY46); conditions: for IC50: IonWorks Quattro, read-out: IWQ Use Nav1.3; for Nav1.4/Nav1.3 / Nav1.7/Nav1.3: ratio of IWQ Use values; for Nav1.4/Nav1.3: Nav1.4 over Nav1.3; for Nav1.7/Nav1.3: Nav1.7 over Nav1.3
Sequence of hNav1.3 (Q9NY46 whole entry, looked up): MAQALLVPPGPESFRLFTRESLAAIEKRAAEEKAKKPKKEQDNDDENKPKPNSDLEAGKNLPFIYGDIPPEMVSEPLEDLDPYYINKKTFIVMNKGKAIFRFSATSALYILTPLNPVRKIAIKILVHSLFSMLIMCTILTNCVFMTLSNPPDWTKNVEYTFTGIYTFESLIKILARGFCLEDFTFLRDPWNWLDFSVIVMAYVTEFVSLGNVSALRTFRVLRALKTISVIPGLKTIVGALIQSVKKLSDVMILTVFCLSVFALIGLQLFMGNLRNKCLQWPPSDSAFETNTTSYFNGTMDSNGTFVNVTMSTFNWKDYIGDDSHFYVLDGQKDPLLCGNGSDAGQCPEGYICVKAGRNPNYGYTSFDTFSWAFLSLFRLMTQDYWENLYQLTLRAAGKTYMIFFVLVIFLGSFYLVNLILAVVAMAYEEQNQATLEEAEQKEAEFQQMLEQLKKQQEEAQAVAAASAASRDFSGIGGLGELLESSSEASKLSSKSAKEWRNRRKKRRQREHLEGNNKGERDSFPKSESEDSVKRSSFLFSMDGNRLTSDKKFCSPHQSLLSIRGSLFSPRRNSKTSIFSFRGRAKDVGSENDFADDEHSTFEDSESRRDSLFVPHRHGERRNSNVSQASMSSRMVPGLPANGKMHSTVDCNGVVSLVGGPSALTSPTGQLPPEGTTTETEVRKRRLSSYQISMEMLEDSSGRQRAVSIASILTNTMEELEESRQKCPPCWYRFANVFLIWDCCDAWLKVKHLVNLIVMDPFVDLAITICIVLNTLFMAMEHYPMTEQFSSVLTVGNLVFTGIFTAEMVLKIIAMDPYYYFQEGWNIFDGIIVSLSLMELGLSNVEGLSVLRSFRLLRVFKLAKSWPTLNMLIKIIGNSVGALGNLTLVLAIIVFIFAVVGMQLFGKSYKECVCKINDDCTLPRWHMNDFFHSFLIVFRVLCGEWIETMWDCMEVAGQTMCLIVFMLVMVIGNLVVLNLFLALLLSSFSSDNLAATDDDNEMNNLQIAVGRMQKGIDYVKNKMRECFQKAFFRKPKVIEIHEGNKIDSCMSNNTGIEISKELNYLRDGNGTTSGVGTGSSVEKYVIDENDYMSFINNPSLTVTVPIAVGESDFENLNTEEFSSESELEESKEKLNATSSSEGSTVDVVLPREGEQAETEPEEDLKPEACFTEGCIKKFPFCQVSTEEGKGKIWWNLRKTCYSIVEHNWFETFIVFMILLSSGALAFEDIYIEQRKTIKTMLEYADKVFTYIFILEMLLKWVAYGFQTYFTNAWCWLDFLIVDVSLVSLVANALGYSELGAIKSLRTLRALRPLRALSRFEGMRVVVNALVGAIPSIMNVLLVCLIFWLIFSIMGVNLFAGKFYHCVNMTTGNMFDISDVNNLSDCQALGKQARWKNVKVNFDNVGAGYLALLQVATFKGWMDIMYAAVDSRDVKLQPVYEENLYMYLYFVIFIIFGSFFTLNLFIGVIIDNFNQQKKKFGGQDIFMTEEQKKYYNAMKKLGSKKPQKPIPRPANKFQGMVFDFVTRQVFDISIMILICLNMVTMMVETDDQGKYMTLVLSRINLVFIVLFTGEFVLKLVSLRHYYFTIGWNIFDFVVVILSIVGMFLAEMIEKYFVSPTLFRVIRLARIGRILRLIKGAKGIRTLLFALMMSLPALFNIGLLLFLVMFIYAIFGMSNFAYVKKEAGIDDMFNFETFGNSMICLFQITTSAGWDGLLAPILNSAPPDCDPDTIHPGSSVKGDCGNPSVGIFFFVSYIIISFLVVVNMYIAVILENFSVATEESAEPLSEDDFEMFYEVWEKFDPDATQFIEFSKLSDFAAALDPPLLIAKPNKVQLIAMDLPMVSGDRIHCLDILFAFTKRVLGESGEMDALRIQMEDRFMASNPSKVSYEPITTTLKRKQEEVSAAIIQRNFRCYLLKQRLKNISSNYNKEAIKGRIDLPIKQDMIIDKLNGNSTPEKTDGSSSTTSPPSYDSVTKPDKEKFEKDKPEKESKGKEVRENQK

hNav1.7 = hNav1.7 (Homo sapiens, UniProt Q15858); format: cell-based; conditions: for IC50: IonWorks Quattro, read-out: IWQ Use Nav1.7; for Nav1.4/Nav1.7: ratio of IWQ Use values, Nav1.4 over Nav1.7
Sequence of hNav1.7 (Q15858 whole entry, looked up): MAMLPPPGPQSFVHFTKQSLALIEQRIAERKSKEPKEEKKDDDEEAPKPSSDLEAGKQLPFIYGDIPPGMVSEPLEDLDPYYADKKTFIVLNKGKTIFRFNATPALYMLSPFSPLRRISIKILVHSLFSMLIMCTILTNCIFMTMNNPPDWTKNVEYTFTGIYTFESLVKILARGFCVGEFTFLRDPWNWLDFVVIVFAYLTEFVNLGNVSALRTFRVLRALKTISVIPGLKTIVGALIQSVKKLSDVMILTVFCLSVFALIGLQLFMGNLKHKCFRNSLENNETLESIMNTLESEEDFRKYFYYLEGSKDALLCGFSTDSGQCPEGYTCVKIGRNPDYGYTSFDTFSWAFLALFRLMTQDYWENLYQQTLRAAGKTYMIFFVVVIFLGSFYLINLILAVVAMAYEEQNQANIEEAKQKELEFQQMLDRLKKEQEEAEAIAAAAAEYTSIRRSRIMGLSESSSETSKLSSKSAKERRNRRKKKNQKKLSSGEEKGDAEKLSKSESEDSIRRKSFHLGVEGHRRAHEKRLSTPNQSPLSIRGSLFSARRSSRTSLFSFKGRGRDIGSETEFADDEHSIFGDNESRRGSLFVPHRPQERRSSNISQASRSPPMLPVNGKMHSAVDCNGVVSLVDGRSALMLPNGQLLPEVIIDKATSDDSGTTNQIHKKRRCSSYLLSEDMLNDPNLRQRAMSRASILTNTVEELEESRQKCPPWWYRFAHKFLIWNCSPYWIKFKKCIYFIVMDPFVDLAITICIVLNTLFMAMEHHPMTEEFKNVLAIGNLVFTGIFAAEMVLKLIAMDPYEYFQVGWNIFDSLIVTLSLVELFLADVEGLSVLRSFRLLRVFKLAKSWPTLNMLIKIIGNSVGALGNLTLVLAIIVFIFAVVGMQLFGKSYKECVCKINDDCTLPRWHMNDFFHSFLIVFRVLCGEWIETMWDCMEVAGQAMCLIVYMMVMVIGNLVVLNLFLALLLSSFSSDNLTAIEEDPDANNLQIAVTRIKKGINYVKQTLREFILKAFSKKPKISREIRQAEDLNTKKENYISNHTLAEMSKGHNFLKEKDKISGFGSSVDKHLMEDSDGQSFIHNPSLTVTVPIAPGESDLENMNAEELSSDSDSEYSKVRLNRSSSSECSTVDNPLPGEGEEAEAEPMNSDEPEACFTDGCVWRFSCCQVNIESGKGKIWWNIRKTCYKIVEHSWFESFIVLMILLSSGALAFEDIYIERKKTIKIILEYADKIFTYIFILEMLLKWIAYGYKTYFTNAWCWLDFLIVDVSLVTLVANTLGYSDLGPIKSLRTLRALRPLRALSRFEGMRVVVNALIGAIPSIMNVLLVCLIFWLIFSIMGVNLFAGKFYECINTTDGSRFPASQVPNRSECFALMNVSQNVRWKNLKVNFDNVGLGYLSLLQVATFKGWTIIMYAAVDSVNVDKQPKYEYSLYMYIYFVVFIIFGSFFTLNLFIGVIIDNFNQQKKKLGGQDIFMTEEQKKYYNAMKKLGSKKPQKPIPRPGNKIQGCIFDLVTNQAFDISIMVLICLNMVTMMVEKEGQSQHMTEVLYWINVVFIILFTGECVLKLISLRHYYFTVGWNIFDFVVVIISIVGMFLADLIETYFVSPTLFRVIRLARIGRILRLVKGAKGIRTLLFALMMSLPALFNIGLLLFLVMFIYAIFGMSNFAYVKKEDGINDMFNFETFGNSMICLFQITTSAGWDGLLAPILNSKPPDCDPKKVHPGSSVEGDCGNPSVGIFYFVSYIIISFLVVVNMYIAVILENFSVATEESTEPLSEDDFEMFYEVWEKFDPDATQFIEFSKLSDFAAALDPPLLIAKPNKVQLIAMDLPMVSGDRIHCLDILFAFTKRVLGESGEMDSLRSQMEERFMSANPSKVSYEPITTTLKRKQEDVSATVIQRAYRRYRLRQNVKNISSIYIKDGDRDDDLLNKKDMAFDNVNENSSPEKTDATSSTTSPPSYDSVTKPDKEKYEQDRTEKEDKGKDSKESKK

Row | Compound | Nav1.4/Nav1.3 (hNav1.3) | Nav1.7/Nav1.3 (hNav1.3) | Nav1.4/Nav1.7 (hNav1.7) | also measured
1 | CC[C@H](C)[C@@H]1NC(=O)[C@@H]2CSSC[C@@H]3NC(=O)[C@H](C(C)C)NC(=O)[C@H](CC(C)C)NC(=O)[C@H](CC(N)=O)NC(=O)[C@@H]4CCCN4C(=O)[C@H](CCCNC(=N)N)NC(=O)[C@H](CSSC[C@H](NC(=O)[C@@H](N)CC(=O)O)C(=O)N[C@@H](CC(C)C)C(=O)NCC(=O)N[C@H](Cc4ccccc4)C(=O)N[C@@H](CCSC)C(=O)N[C@@H](CCCNC(=N)N)C(=O)N[C@@H](CCCCN)C(=O)N2)NC(=O)[C@H](CSSC[C@@H](C(=O)N[C@@H](CCCCN)C(=O)N[C@@H](Cc2ccc(O)cc2)C(=O)N[C@H](C(=O)N[C@@H](Cc2ccccc2)C(N)=O)C(C)C)NC(=O)[C@H](Cc2c[nH]c4ccccc24)NC(=O)[C@H](CCCCN)NC(=O)[C@H](Cc2c[nH]cn2)NC(=O)[C@H]([C@@H](C)O)NC(=O)[C@H](CCCNC(=N)N)NC(=O)[C@H](CO)NC3=O)NC(=O)[C@H](CCCCN)NC(=O)[C@H](CC(=O)O)NC(=O)[C@H](CC(N)=O)NC(=O)[C@H](CC(=O)O)NC(=O)[C@@H]2CCCN2C1=O [SEQ ID NO: 273] | – | – | – | IC50 (hNav1.5; IWQ Use Nav1.5): > 5000 nM
2 | CC[C@H](C)[C@@H]1NC(=O)[C@@H]2CSSC[C@@H]3NC(=O)[C@H](C(C)C)NC(=O)[C@H](CC(C)C)NC(=O)[C@H](CC(N)=O)NC(=O)[C@@H]4CCCN4C(=O)[C@H](CCCNC(=N)N)NC(=O)[C@H](CSSC[C@H](NC(=O)[C@@H](N)CC(=O)O)C(=O)N[C@@H](CC(C)C)C(=O)NCC(=O)N[C@@H](Cc4ccccc4)C(=O)N[C@@H](CCSC)C(=O)N[C@@H](CCCNC(=N)N)C(=O)N[C@@H](CCCCN)C(=O)N2)NC(=O)[C@H](CSSC[C@@H](C(=O)N[C@@H](CCCCN)C(=O)N[C@@H](Cc2ccc(O)cc2)C(=O)N[C@H](C(=O)N[C@@H](Cc2ccccc2)C(N)=O)C(C)C)NC(=O)[C@H](Cc2c[nH]c4ccccc24)NC(=O)[C@H](CCC(N)=O)NC(=O)[C@H](Cc2c[nH]cn2)NC(=O)[C@H]([C@@H](C)O)NC(=O)[C@H](CCCNC(=N)N)NC(=O)[C@H](CO)NC3=O)NC(=O)[C@H](CCCCN)NC(=O)[C@H](CC(=O)O)NC(=O)[C@H](CC(N)=O)NC(=O)[C@H](CC(=O)O)NC(=O)[C@@H]2CCCN2C1=O [SEQ ID NO: 763, [Gln28]GpTx-1] (H-DCLGFMRKCIPDNDKCCRPNLVCSRTHQWCKYVF-NH2; disulfide 2-17, 9-23, 16-30) | – | – | – | IC50 (hNav1.5; read-out: IWQ Use Nav1.5): 22700 nM
3 | CC[C@H](C)[C@@H]1NC(=O)[C@@H]2CSSC[C@@H]3NC(=O)[C@H](C(C)C)NC(=O)[C@H](CC(C)C)NC(=O)[C@H](CC(N)=O)NC(=O)[C@@H]4CCCN4C(=O)[C@H](CCCNC(=N)N)NC(=O)[C@H](CSSC[C@H](NC(=O)[C@@H](N)CC(=O)O)C(=O)N[C@@H](CC(C)C)C(=O)NCC(=O)N[C@@H](Cc4ccccc4)C(=O)N[C@@H](CCSC)C(=O)N[C@@H](CCCNC(=N)N)C(=O)N[C@@H](CCCCN)C(=O)N2)NC(=O)[C@H](CSSC[C@@H](C(=O)N[C@@H](CCCCN)C(=O)N[C@@H](Cc2ccc(O)cc2)C(=O)N[C@H](C(=O)N[C@@H](Cc2ccccc2)C(N)=O)C(C)C)NC(=O)[C@H](Cc2c[nH]c4ccccc24)NC(=O)[C@H](CCCCN)NC(=O)[C@H](Cc2c[nH]c4ccccc24)NC(=O)[C@H]([C@@H](C)O)NC(=O)[C@H](CCCNC(=N)N)NC(=O)[C@H](CO)NC3=O)NC(=O)[C@H](CCCCN)NC(=O)[C@H](CC(=O)O)NC(=O)[C@H](CC(N)=O)NC(=O)[C@H](CC(=O)O)NC(=O)[C@@H]2CCCN2C1=O [compound 84] (H-DCLGFMRKCIPDNDKCCRPNLVCSRTWKWCKYVF-NH2; disulfide 2-17, 9-23, 16-30) | – | – | – | IC50 (hNav1.3; Table 23, use, […]): 590 nM; IC50 (hNav1.7; Table 23, use, […]): 320 nM
4 | CC[C@H](C)[C@@H]1NC(=O)[C@@H]2CSSC[C@@H]3NC(=O)[C@H](C(C)C)NC(=O)[C@H](CC(C)C)NC(=O)[C@H](CC(N)=O)NC(=O)[C@@H]4CCCN4C(=O)[C@H](CCCNC(=N)N)NC(=O)[C@H](CSSC[C@H](NC(=O)[C@@H](N)CC(=O)O)C(=O)N[C@@H](CC(C)C)C(=O)NCC(=O)N[C@@H](Cc4ccccc4)C(=O)N[C@@H](CCSC)C(=O)N[C@@H](CCCNC(=N)N)C(=O)N[C@@H](CCCCN)C(=O)N2)NC(=O)[C@H](CSSC[C@@H](C(=O)N[C@@H](CCCCN)C(=O)N[C@@H](Cc2ccc(O)cc2)C(=O)N[C@H](C(=O)N[C@@H](Cc2ccccc2)C(N)=O)C(C)C)NC(=O)[C@H](Cc2c[nH]c4ccccc24)NC(=O)[C@H](CCCCN)NC(=O)[C@H](Cc2cnc[nH]2)NC(=O)[C@H](Cc2cnc[nH]2)NC(=O)[C@H](CCCNC(=N)N)NC(=O)[C@H](CO)NC3=O)NC(=O)[C@H](CCCCN)NC(=O)[C@H](CC(=O)O)NC(=O)[C@H](CC(N)=O)NC(=O)[C@H](CC(=O)O)NC(=O)[C@@H]2CCCN2C1=O [compound 337] (H-DCLGFMRKCIPDNDKCCRPNLVCSRHHKWCKYVF-NH2; disulfide 2-17, 9-23, 16-30) | – | – | – | IC50 (hNav1.3; Table 22, use, […]): 80 nM; IC50 (hNav1.7; Table 22, use, […]): 100 nM
5 | CC[C@H](C)[C@@H]1NC(=O)[C@@H]2CSSC[C@@H]3NC(=O)[C@H](C(C)C)NC(=O)[C@H](CC(C)C)NC(=O)[C@H](CC(N)=O)NC(=O)[C@@H]4CCCN4C(=O)[C@H](CCCNC(=N)N)NC(=O)[C@H](CSSC[C@H](NC(=O)[C@@H](N)CC(=O)O)C(=O)N[C@@H](CC(C)C)C(=O)NCC(=O)NC(C)(C)C(=O)N[C@@H](CC(C)C)C(=O)N[C@@H](CCCNC(=N)N)C(=O)N[C@@H](CCCCN)C(=O)N2)NC(=O)[C@H](CSSC[C@@H](C(=O)N[C@@H](CCCCN)C(=O)N[C@@H](Cc2ccc(O)cc2)C(=O)N[C@H](C(=O)N[C@@H](Cc2ccccc2)C(N)=O)C(C)C)NC(=O)[C@H](Cc2c[nH]c4ccccc24)NC(=O)[C@H](CCCCN)NC(=O)[C@H](Cc2c[nH]cn2)NC(=O)[C@H]([C@@H](C)O)NC(=O)[C@H](CCCNC(=N)N)NC(=O)[C@H](CO)NC3=O)NC(=O)[C@H](CCCCN)NC(=O)[C@H](CC(=O)O)NC(=O)[C@H](CC(N)=O)NC(=O)[C@H](CC(=O)O)NC(=O)[C@@H]2CCCN2C1=O [compound 635] | – | – | – | IC50 (hNav1.3; use-dependent protocol, hNav1.3): 380 nM; IC50 (hNav1.7; use-dependent protocol, hNav1.7): 230 nM
6 | CC[C@H](C)[C@@H]1NC(=O)[C@@H]2CSSC[C@@H]3NC(=O)[C@H](C(C)C)NC(=O)[C@H](CC(C)C)NC(=O)[C@H](CC(N)=O)NC(=O)[C@@H]4CCCN4C(=O)[C@H](CCCNC(=N)N)NC(=O)[C@H](CSSC[C@H](NC(=O)[C@@H](N)CC(=O)O)C(=O)N[C@@H](CC(C)C)C(=O)NCC(=O)N[C@@H](Cc4ccc(Cl)c(Cl)c4)C(=O)N[C@@H](CCSC)C(=O)N[C@@H](CCCNC(=N)N)C(=O)N[C@@H](CCCCN)C(=O)N2)NC(=O)[C@H](CSSC[C@@H](C(=O)N[C@@H](CCCCN)C(=O)N[C@@H](Cc2ccc(O)cc2)C(=O)N[C@H](C(=O)N[C@@H](Cc2ccccc2)C(N)=O)C(C)C)NC(=O)[C@H](Cc2c[nH]c4ccccc24)NC(=O)[C@H](CCCCN)NC(=O)[C@H](Cc2c[nH]cn2)NC(=O)[C@H]([C@@H](C)O)NC(=O)[C@H](CCCNC(=N)N)NC(=O)[C@H](CO)NC3=O)NC(=O)[C@H](CCCCN)NC(=O)[C@H](CC(=O)O)NC(=O)[C@H](CC(N)=O)NC(=O)[C@H](CC(=O)O)NC(=O)[C@@H]2CCCN2C1=O [compound 653] | 17.7 | 2.0 | 8.8 | –
7 | CC[C@H](C)[C@@H]1NC(=O)[C@@H]2CSSC[C@@H]3NC(=O)[C@H](C(C)C)NC(=O)[C@H](CC(C)C)NC(=O)[C@H](CC(N)=O)NC(=O)[C@@H]4CCCN4C(=O)[C@H](CCCNC(=N)N)NC(=O)[C@H](CSSC[C@H](NC(=O)[C@@H](N)CC(=O)O)C(=O)N[C@@H](CC(C)C)C(=O)NCC(=O)N[C@@H](Cc4ccc(C(F)(F)F)cc4)C(=O)N[C@@H](CCSC)C(=O)N[C@@H](CCCNC(=N)N)C(=O)N[C@@H](CCCCN)C(=O)N2)NC(=O)[C@H](CSSC[C@@H](C(=O)N[C@@H](CCCCN)C(=O)N[C@@H](Cc2ccc(O)cc2)C(=O)N[C@H](C(=O)N[C@@H](Cc2ccccc2)C(N)=O)C(C)C)NC(=O)[C@H](Cc2c[nH]c4ccccc24)NC(=O)[C@H](CCCCN)NC(=O)[C@H](Cc2c[nH]cn2)NC(=O)[C@H]([C@@H](C)O)NC(=O)[C@H](CCCNC(=N)N)NC(=O)[C@H](CO)NC3=O)NC(=O)[C@H](CCCCN)NC(=O)[C@H](CC(=O)O)NC(=O)[C@H](CC(N)=O)NC(=O)[C@H](CC(=O)O)NC(=O)[C@@H]2CCCN2C1=O [compound 654] | 18.4 | 4.4 | 4.1 | –
8 | CC[C@H](C)[C@@H]1NC(=O)[C@@H]2CSSC[C@@H]3NC(=O)[C@H](C(C)C)NC(=O)[C@H](CC(C)C)NC(=O)[C@H](CC(N)=O)NC(=O)[C@@H]4CCCN4C(=O)[C@H](CCCNC(=N)N)NC(=O)[C@H](CSSC[C@H](NC(=O)[C@@H](N)CC(=O)O)C(=O)N[C@@H](CC(C)C)C(=O)NCC(=O)N[C@@H](Cc4ccc(F)cc4)C(=O)N[C@@H](CCSC)C(=O)N[C@@H](CCCNC(=N)N)C(=O)N[C@@H](CCCCN)C(=O)N2)NC(=O)[C@H](CSSC[C@@H](C(=O)N[C@@H](CCCCN)C(=O)N[C@@H](Cc2ccc(O)cc2)C(=O)N[C@H](C(=O)N[C@@H](Cc2ccccc2)C(N)=O)C(C)C)NC(=O)[C@H](Cc2c[nH]c4ccccc24)NC(=O)[C@H](CCCCN)NC(=O)[C@H](Cc2c[nH]cn2)NC(=O)[C@H]([C@@H](C)O)NC(=O)[C@H](CCCNC(=N)N)NC(=O)[C@H](CO)NC3=O)NC(=O)[C@H](CCCCN)NC(=O)[C@H](CC(=O)O)NC(=O)[C@H](CC(N)=O)NC(=O)[C@H](CC(=O)O)NC(=O)[C@@H]2CCCN2C1=O [compound 655] | 26.6 | 3.8 | 7.1 | –
